# From patent US7588894B2, “Use of ID4 for diagnosis and treatment of cancer” (John Wayne Cancern Institute, priority 2005, dated 2009)
# Entries after “also recorded” stand apart in the source; their conditions may differ.
# Tests used:
# Format in all cases: cell-based
# [1] = system: ID4 mRNA expression in SW480; assay: ID4 mRNA expression by quantitative real-time reverse transcription-PCR after 5Aza treatment, SW480
# Protocol: (§1) Cell Lines. Three CRC cell lines SW480, DLD1, and LOVO (American Type Culture Collection, Manassas, Va.) were analyzed in this study. Genomic DNA was extracted from cells as described previously (33). Total RNA was extracted with TRI Reagent (Molecular Research Center, Inc., Cincinnati, Ohio) according to the manufacturer's protocol. For ID4 expression restoration study, SW480 and DLD1 were treated with DNA demethylation agent 5-aza-cytidine (5Aza), a known inhibitor of methylation, as described previously (33-35). Cells were seeded at 7×10^5/T-25 flask on day zero; the culture medium was changed on day two, and cells were then treated with 5Aza at final concentrations of 5 ug/mL for 48 hours (SW480 and DLD1) and 10 ug/mL for 72 hours (DLD1). After treatment, cells were harvested for DNA and RNA as described above.
# (§2) Analysis of mRNA Expression Level. Reverse-transcriptase reactions were done on 1.0 ug of extracted total RNA with Moloney murine leukemia virus reverse-transcriptase (Promega, Madison, Wis.) with oligodeoxythymidylic acid primers, as described previously (39). Quantitative real-time reverse transcription-PCR assay was done on the iCycler iQ Real-Time thermocycler detection system (Bio-Rad Laboratories, Hercules, Calif.; 39). For each PCR, the reaction mixture consisted of cDNA template synthesized by reverse-transcription from 250 ng of total RNA, 0.2 mmol/L of forward primer (5′-CGCTCACTGCGCTCAACAC-3′), 0.2 mmol/L of reverse primer (5′-TCAGGCGGCCGCACACCT-3′), and 0.6 mmol/L of fluorescence resonance energy transfer probe (5′-FAM-[…]-BHQ-3′). […] Absolute copy numbers were determined by a standard curve with serial dilutions (10^8 to 10^1 copies) of DNA containing ID4 or GAPDH cDNA sequence. […] The expression level of the housekeeping gene GAPDH was measured as an internal reference with a standard curve to determine the integrity of template RNA for all of the specimens. The ratio of ID4 and GAPDH mRNA level was calculated as follows: (absolute copy number of ID4)/(absolute copy number of GAPDH) as described previously (39).
# [2] = system: ID4 mRNA expression in DLD1; assay: ID4 mRNA expression by quantitative real-time reverse transcription-PCR after 5Aza treatment, DLD1
# Protocol: as §1
# Analysis of mRNA Expression Level. Reverse-transcriptase reactions were done on 1.0 ug of extracted total RNA with Moloney murine leukemia virus reverse-transcriptase (Promega, Madison, Wis.) with oligodeoxythymidylic acid primers, as described previously (39). Quantitative real-time reverse transcription-PCR assay was done on the iCycler iQ Real-Time thermocycler detection system (Bio-Rad Laboratories, Hercules, Calif.; 39). For each PCR, the reaction mixture consisted of cDNA template synthesized by reverse-transcription from 250 ng of total RNA, 0.2 mmol/L of forward primer (5′-CGCTCACTGCGCTCAACAC-3′), 0.2 mmol/L of reverse primer (5′-TCAGGCGGCCGCACACCT-3′), and 0.6 mmol/L of fluorescence resonance energy transfer probe (5′-FAM-[…]-BHQ-3′). PCR amplification was done in a 20-ul reaction volume for 45 cycles of 30 seconds at 94° C., 30 seconds at 58° C., and 30 seconds at 72° C. with 3 mmol/L of Mg^2+. Absolute copy numbers were determined by a standard curve with serial dilutions (10^8 to 10^1 copies) of DNA containing ID4 or GAPDH cDNA sequence. Analysis without templates was done as a negative control in each study. PCR products were electrophoresed on 2% agarose gels to confirm correct product size and absence of nonspecific bands. The expression level of the housekeeping gene GAPDH was measured as an internal reference with a standard curve to determine the integrity of template RNA for all of the specimens. The ratio of ID4 and GAPDH mRNA level was calculated as follows: (absolute copy number of ID4)/(absolute copy number of GAPDH) as described previously (39).
# [3] = system: ID4 promoter region in SW480; assay: Methylation-specific PCR of ID4 promoter region after 5Aza treatment, SW480; conditions: SW480, 5 ug/mL of 5Aza for 48 hours; untreated only methylated peaks
# Protocol: (§3) Cell Lines. Three CRC cell lines SW480, DLD1, and LOVO (American Type Culture Collection, Manassas, Va.) were analyzed in this study. Genomic DNA was extracted from cells as described previously (33). Total RNA was extracted with TRI Reagent (Molecular Research Center, Inc., Cincinnati, Ohio) according to the manufacturer's protocol. […] Cells were seeded at 7×10^5/T-25 flask on day zero; the culture medium was changed on day two, and cells were then treated with 5Aza at final concentrations of 5 ug/mL for 48 hours (SW480 and DLD1) and 10 ug/mL for 72 hours (DLD1). After treatment, cells were harvested for DNA and RNA as described above. Sodium bisulfite modification was applied on extracted genomic DNA of tissue specimens or cell lines for methylation-specific PCR or bisulfite sequencing as described previously (33). Detection of Hypermethylation. Methylation status of ID4 promoter region was analyzed by methylation-specific PCR and bisulfite sequencing. […] PCR products were detected and analyzed by CEQ 8000XL capillary array electrophoresis system (Beckman Coulter, Inc., Fullerton, Calif.) with CEQ 8000 software version 6.0 (Beckman Coulter) as described previously (35). Methylation status was determined by the ratio of the signal intensities of methylated and unmethylated PCR products; samples with methylated to unmethylated ratio larger than 0.2 were determined as methylated.
# [4] = system: ID4 promoter region in DLD1; assay: Methylation-specific PCR of ID4 promoter region after 5Aza treatment, DLD1; conditions: DLD1, 10 ug/mL of 5Aza for 72 hours; untreated only methylated peaks
# Protocol: as §3
# [5] = system: ID4 promoter region in SW480; assay: Bisulfite sequencing of ID4 promoter region after 5Aza treatment, SW480; conditions: SW480, 5 ug/mL of 5Aza for 48 hours; nontreated cells all CpG sites methylated
# Protocol: as §1
# (§4) Sodium bisulfite modification was applied on extracted genomic DNA of tissue specimens or cell lines for methylation-specific PCR or bisulfite sequencing as described previously (33).
# (§5) For bisulfite sequencing, the primer set was as follows: forward, 5′-[…]-3′; and reverse, 5′-[…]-3′, with Y═C or T, R=G or A, as described previously (32). […] Sequences were read by CEQ 8000XL capillary array electrophoresis system (Beckman Coulter) with CEQ 8000 software version 6.0 (Beckman Coulter) as described previously (37).
# [6] = system: ID4 promoter region in DLD1; assay: Bisulfite sequencing of ID4 promoter region after 5Aza treatment, DLD1; conditions: DLD1, 10 ug/mL of 5Aza for 72 hours
# Protocol: as §1, §4, §5
# CRC cell lines = assay: mRNA expression in CRC cell lines after 5Aza treatment (summary statements)
# Protocol: Cell Lines. Three CRC cell lines SW480, DLD1, and LOVO (American Type Culture Collection, Manassas, Va.) were analyzed in this study. Genomic DNA was extracted from cells as described previously (33). Total RNA was extracted with TRI Reagent (Molecular Research Center, Inc., Cincinnati, Ohio) according to the manufacturer's protocol. For ID4 expression restoration study, SW480 and DLD1 were treated with DNA demethylation agent 5-aza-cytidine (5Aza), a known inhibitor of methylation, as described previously (33-35). […]
# as §2, with “Reverse-transcriptase reactions were done on 1.0 ug of extracted total RNA with Moloney murine leukemia virus reverse-transcriptase (Promega, Madison, Wis.) with oligodeoxythymidylic acid primers, as described previously (39).” left out, “The ratio of ID4 and GAPDH mRNA level was calculated as follows: (absolute copy number of ID4)/(absolute copy number of GAPDH) as described previously (39).” left out
smiles,measurement,setting,value
"Nc1ncn([C@@H]2O[C@H](CO)[C@@H](O)[C@H]2O)c(=O)n1 [5Aza, 5-aza-cytidine]",ID4 copy number,"[1]; SW480, 5 ug/mL of 5Aza for 48 hours, untreated undetectable (0)",4.7×10^2 copies/250 ng of total RNA
same,ID4 expression ratio (ID4 copy number)/(GAPDH copy number),"[1]; SW480, 5Aza-treated, untreated 0",2.8 × 10^−3
same,GAPDH copy number,"[1]; SW480, 5Aza-treated, untreated 4.6 × 10^6",1.7 × 10^5 copies/250 ng of total RNA
same,ID4 expression restoration,"[2]; DLD1, 5 ug/mL of 5Aza for 48 hours",did not overtly restore ID4 expression
same,ID4 copy number,"[2]; DLD1, 10 ug/mL of 5Aza for 72 hours, untreated undetectable (0)",4.8×10^2 copies/250 ng of total RNA
same,ID4 expression ratio (ID4 copy number)/(GAPDH copy number),"[2]; DLD1, 5Aza-treated, untreated 0",4.8 × 10^−3
same,GAPDH copy number,"[2]; DLD1, 5Aza-treated, untreated 5.6 × 10^5",9.9 × 10^4 copies/250 ng of total RNA
same,Methylation-specific PCR result of ID4 promoter,[3],Unmethylated peaks appeared; also recorded: showed an unmethylation-specific peak
same,Methylation-specific PCR result of ID4 promoter,[4],Unmethylated peaks appeared; also recorded: produced an unmethylation-specific peak
same,Methylation status of CpG sites by bisulfite sequencing,[5],most CpG sites were changed to unmethylated form
same,Methylation status of CpG sites by bisulfite sequencing,[6],CpG sites partially lost their methylation
same,ID4 mRNA expression in hypermethylated CRC cell lines,CRC cell lines; 5-aza-cytidine treatment,could be restored
same,GAPDH mRNA,"CRC cell lines; after 5Aza treatment, CRC cell lines",decreased
